The NIST ThermoML archive (doi:10.1016/j.fluid.2016.10.005)
± gives the expanded uncertainty stated by the source.

Columns and labels:
[1] = molar heat capacity at constant pressure; settings: 101 kPa, Liquid, DSC
[2] = molar heat capacity at constant pressure; mn = molality of the nth substance listed, in mol/kg; settings: 101 kPa, Liquid, DSC, m2 = 0

Row | SMILES | molar heat capacity at constant pressure ([1]; 278.15 K) | molar heat capacity at constant pressure ([1]; 283.15 K) | molar heat capacity at constant pressure ([1]; 288.15 K) | molar heat capacity at constant pressure ([1]; 293.15 K) | molar heat capacity at constant pressure ([1]; 298.15 K) | molar heat capacity at constant pressure ([1]; 308.15 K) | molar heat capacity at constant pressure ([1]; 318.15 K) | molar heat capacity at constant pressure ([1]; 328.15 K) | molar heat capacity at constant pressure ([1]; 333.15 K) | molar heat capacity at constant pressure ([2]; 278.15 K) | molar heat capacity at constant pressure ([2]; 283.15 K) | molar heat capacity at constant pressure ([2]; 288.15 K) | molar heat capacity at constant pressure ([2]; 293.15 K) | molar heat capacity at constant pressure ([2]; 298.15 K) | molar heat capacity at constant pressure ([2]; 308.15 K) | molar heat capacity at constant pressure ([2]; 318.15 K) | molar heat capacity at constant pressure ([2]; 328.15 K) | molar heat capacity at constant pressure ([2]; 333.15 K)
1 | CCCCCOCCOCCOCCO [ethanol, 2-[2-[2-(pentyloxy)ethoxy]ethoxy]-] | 471.7 ± 18 J/K/mol | 473.61 ± 18 J/K/mol | 475.62 ± 18 J/K/mol | 477.67 ± 19 J/K/mol | 479.72 ± 19 J/K/mol | 484.23 ± 19 J/K/mol | 489.08 ± 19 J/K/mol | 494.37 ± 19 J/K/mol | 497.05 ± 19 J/K/mol |  |  |  |  |  |  |  |  | 
2 | O [water] | 75.75 ± 2.9 J/K/mol | 75.58 ± 2.9 J/K/mol | 75.47 ± 2.9 J/K/mol | 75.39 ± 2.9 J/K/mol | 75.35 ± 2.9 J/K/mol | 75.32 ± 2.9 J/K/mol | 75.34 ± 2.9 J/K/mol | 75.4 ± 2.9 J/K/mol | 75.48 ± 2.9 J/K/mol |  |  |  |  |  |  |  |  | 
3 | O [water] + CCCCCOCCOCCOCCO |  |  |  |  |  |  |  |  |  | 75.75 ± 2.9 J/K/mol | 75.58 ± 2.9 J/K/mol | 75.47 ± 2.9 J/K/mol | 75.39 ± 2.9 J/K/mol | 75.35 ± 2.9 J/K/mol | 75.32 ± 2.9 J/K/mol | 75.34 ± 2.9 J/K/mol | 75.4 ± 2.9 J/K/mol | 75.48 ± 2.9 J/K/mol
